Assays:
[1] = Particle size and polydispersity index (PDI) of lipid nanoparticles by dynamic light scattering; assay type: physicochemical; conditions: for PDI: LNP formulation of the cationic lipid, 25° C.; for Particle size: LNP formulation of the cationic lipid/DSPC/cholesterol/DMG-PEG2000 49:10:39.5:1.5, 25° C.
Protocol: The particle size and polydispersity index (PDI) were determined by dynamic light scattering using Malvern laser particle size analyzer.
10 μL of the liposome solution was weighed, diluted to 1 mL with RNase-free deionized water, and added to the sample pool. Each sample was measured in triplicate. The measurement conditions were: […] scattering angle, and 25° C.

[2] = Detection of encapsulation efficiency, drug loading concentration and total RNA concentration (RiboGreen); assay type: physicochemical; conditions: LNP formulation prepared from the cationic lipid
From the text: Encapsulation efficiency is a key quality attribute of liposomes, which refers to the percentage of drug content encapsulated in the lipid bimolecular layer accounting for the total drug dose and can reflect the degree of drug encapsulation in liposomes. The Chinese Pharmacopoeia stipulates that the encapsulation efficiency should generally not be less than 80%.
The drug loading amount is the ratio of the amount of drug in the liposome to the total amount of drug and carrier in the liposome. The drug loading amount directly affects the clinical application dose of the drug. […] The drug loading concentration is proportional to the drug loading amount, and the relative proportion of the drug loading concentrations can represent the relative proportion of the drug loading amounts. The relative ratio of the total RNA concentrations may represent the relative ratio of the amounts of mRNA carried by the LNP formulations.
1×TE buffer, 0.1% Triton X-100 buffer, RiboGreen reagent (1: 200) and mRNA standard stock solution were prepared.
An appropriate amount of the sample was added to an appropriate amount of 1×TE buffer, and the mixture was diluted to obtain a solution containing approximately […] sample per 1 mL. Then the sample was added to a 96-well plate, and 50 μL of the diluted test sample or the mRNA standard stock solution was added to each well, then 1×TE buffer and 0.1% Triton X-100 buffer were added. The sample was incubated at 37° C. for 10 minutes, and 100 μL RiboGreen reagent (1:200) was added to each well of the test sample in the 96-well plate. The sample was centrifugated, and the data were read using a microplate reader, and processed.

[3] = test system: 293T cells; test: Fluorescent detection of Fluc-mRNA (cell transfection efficiency of LNP formulations); assay type: cell-based; conditions: for Relative light unit (RLU): LNP with 0.3 μg Fluc-mRNA, 96-well plate, 24 hours
Protocol: (§1) Seeding plate: The cells in the culture dish were digested and counted. Cells were spread in a 96-well plate at 10,000 cells per well and in a 12-well plate at 150,000 cells per well. Cells were cultured overnight until the cells adhered to the wall.
The corresponding reagents were added according to the instructions of the Gaussia Luciferase Assay Kit, and the fluorescence expression intensity of each well was detected by an IVIS fluorescence detection system.

[4] = test system: 293T cells; test: Cell survival rate assay (CCK-8); assay type: cell-based; conditions: LNP with 1.5 μg Fluc-mRNA, 24 hours, CCK-8
Protocol: Cell recovery and passage: 293T cells were recovered, cultured in a culture dish, and passaged to the required number of cells.
as §1
An LNP formulation containing 1.5 μg of Fluc-mRNA (prepared according to example 4, the carrier components of the LNP formulation were cationic lipid, neutral lipid, structured lipid and polymer-conjugated lipid at a molar ratio of 49:10:39.5:1.5, wherein the cationic lipid was listed in Table 1) and the formulation of Lipofectamine 3000 were added to the cell culture medium of a 96-well plate, and further cultivated for 24 hours. 10 μL of CCK-8 solution was then added to each well, and the culture plate was incubated in an incubator for 1 hour. The absorbance at 450 nm was measured by a microplate reader.

[5] = test system: female BALB/C mice; test: In vivo imaging in mice of Fluc-mRNA LNP formulations (mRNA expression and duration); conditions: Fluc-mRNA LNP intramuscular; for average radiation intensity, 6 h: 6 h after administration; for average radiation intensity, 24 h: 24 h after administration; for average radiation intensity, 48 h: 48 h after administration; for average radiation intensity, 7 d: 7 d after administration
Protocol: (§2) The LNP formulation (prepared according to Example 4) containing […] Fluc-mRNA was injected intramuscularly into female BALB/C mice aged 4-6 weeks and weighed 17-19 g, and the mice were intraperitoneally injected with fluorescent imaging substrate at specific time points after administration (6h, 24 h, 48h and 7d), where the mice were allowed to free move for 5 minutes, and then the average radiation intensity (corresponding to fluorescence expression intensity) of the protein expression of the mRNA carried by the LNP in the mice was detected by the IVIS Spectrum small animal in vivo imaging system.

[6] = test system: female BALB/C mice; test: Distribution of liposomes in mice (protein expression in liver, spleen, lung, heart and kidney); assay type: in vivo
Protocol: as §2
Current mRNA vaccines usually express proteins in muscle.

[7] = test system: 293T cells; test: Fluorescent detection of Fluc-mRNA (cell transfection efficiency of LNP formulations); assay type: cell-based

PDI [1] [%] | Particle size [1] [nm] | Drug loading concentration [2] [µg/mL] | Encapsulation efficiency [2] [%] | Total RNA concentration [2] [µg/mL] | protein expression in the liver ([6]; mouse, in vivo) | protein expression in the spleen ([6]; mouse, in vivo) | Molecule | Relative light unit (RLU) [3] [RLU] | Cell survival rate [4] [%] | average radiation intensity, 6 h [5] | average radiation intensity, 24 h [5] | average radiation intensity, 48 h [5] | average radiation intensity, 7 d [5] | other results
22.3 | 154 | 26.53 | 62.9 | 36.04 | had protein expression in the liver | had protein expression in the spleen | CCCCCCCCCCCOC(=O)CCCCCN(CCO)CCCCCCCC(=O)OC(CCCCCCCC)CCCCCCCC [SM-102, reference compound] | 1704121 | 67.90 | 691480 | 123380 | 32871 | 6723 | 
12.1 | 147 | 20.01 | 56.2 | 31.05 |  |  | bis(3-hexylnonyl) 8,8′-((2-hydroxyethyl) azanediyl)dioctanoate [Compound 23, reference compound] | 1402597 | 69.11 | 581400 | 100970 | 32917 | 6105 | Multiple of YK-401 [3]: 4.00; protein expression in the liver ([6]; mice, intramuscular Fluc-mRNA LNP, at 6h (FIG. 14)): had protein expression in the liver; Multiple of YK-402 ([7]; RLU of YK-402 divided by RLU of the lipid named in the row): 3.60; Multiple of YK-403 ([7]; RLU of YK-403 divided by RLU of the lipid named in the row): 3.74; Multiple of YK-407 ([7]; RLU of YK-407 divided by RLU of the lipid named in the row): 14.53; Multiple of YK-422 ([7]; RLU of YK-422 divided by RLU of the lipid named in the row): 4.59; Multiple of YK-423 ([7]; RLU of YK-423 divided by RLU of the lipid named in the row): 4.44; Ratio relative to SM-102 (RLU, times that of SM-102) ([7]; RLU of the lipid divided by RLU of SM-102): 0.82
16.1 | 170 | 32.84 | 92.8 | 35.39 | had no protein expression in the liver | had protein expression in the spleen | CCCCCCCCC(CCCCCCCC)COC(=O)CCCCCN(CCCO)CCCCN(CCCO)CCCCCC(=O)OCC(CCCCCCCC)CCCCCCCC [YK-424, bis(2-octyldecyl) 6,6′-(butane-1,4-diylbis((3-hydroxypropyl)azanediyl))dihexanoate] | 2883414 | 27.93 |  |  |  |  | 
17.2 | 149 | 24.96 | 75.6 | 33.01 | had no protein expression in the liver |  | CCCCCCCCCCOC(=O)CCCN(CCO)CCCN(CCO)CCCCCCOC(=O)CC(CCCCCC)CCCCCC [YK-418, 6-((3-((4-(decyloxy)-4-oxobutyl)(2-hydroxyethyl)amino)propyl)(2-hydroxyethyl)amino)hexyl 3-hexylnonanoate] | 111251 | 21.05 |  |  |  |  | 
5.2 | 150 | 36.72 | 86.3 | 42.57 | had no protein expression in the liver |  | CCCCCCCCCCOC(=O)CCCCCN(CCO)CCN(CCO)CCCCCC(=O)OCCC(CCCCCC)CCCCCC [YK-411] | 7976 | 16.33 | 5850 | 2022 | 975 | 480 | 
16.6 | 144 | 32.65 | 60.2 | 36.44 | had protein expression in the liver |  | CCCCCCCCCCCCC(O)CN(C)CCCCCC(=O)OCC(CCCCCC)CCCCCCCC (stereo not shown) [HHMA, reference compound] | 2078940 | 64.27 | 661080 | 120010 | 33346 | 5958 | 
 |  |  |  |  | had protein expression in the liver |  | CCCCCCCCC(CCCCCCCC)OC(=O)CCCCCCCN(CCO)CCCCCCCC(=O)OCCC(CCCCCC)CCCCCC [Compound 21, reference compound] | 1511024 | 67.84 | 600500 | 111040 | 31540 | 6378 | 
17.7 | 128 | 25.02 | 74.8 | 33.46 |  |  | CCCCCCCCCCOC(=O)CCCCCN(CCO)CCCN(CCO)CCCCCC(=O)OCCC(CCCCCC)CCCCCC [YK-417] | 117287 | 21.34 | 60480 | 19987 | 7045 | 2284 | 
18.2 | 205 | 26.88 | 63.3 | 37.86 | had protein expression in the liver |  | CCCCCCCCC(CCCCCC)C(=O)OCCCCCCN(CCCCO)CCCCCCOC(=O)C(CCCCCC)CCCCCCCC (stereo not shown) [ALC-0315, reference compound] | 2189470 | 47.21 | 841020 | 189740 | 40125 | 7014 | 
11.2 | 169 | 30.40 | 88.3 | 34.44 | had no protein expression in the liver | had protein expression in the spleen | CCCCCCCCC(CCCCCCCC)OC(=O)CCCCCN(CCO)CCCN(CCO)CCCCCC(=O)OC(CCCCCCCC)CCCCCCCC [YK-419, di(heptadecan-9-yl) 6,6′-(propane-1,3-diyl-bis((2-hydroxyethyl)azanediyl))dihexanoate] | 3167322 | 38.92 |  |  |  |  | 

Reference: patent US12545637B2, “Extrahepatic targeted cationic lipid compound with high efficiency and low toxicity and its composition” (BEIJING YOUCARE KECHUANG PHARMACEUTICAL TECHNOLOGY CO., LTD., priority 2023, dated 2026)
